Test results: US7560435B2, “Therapeutic use of riboside of 5-aminoimidazole-4-carboxamide (acadesine)” (Advanced In Vitro Cell Technologies, S. A., priority 2002, dated 2009)

Experiments:
[1] = test system: JVM-2; assay: Effects of acadesine in cell lines: JVM-2; type: cell-based
Text: (§1) Another important advantage of the invention is the selectivity and the concentration of acadesine necessary to induce apoptosis. […] This means that the possible side effects coming from damaging other cellular types are minor when using acadesine as a therapeutical agent.

[2] = test system: B cells from patients with SMZL; assay: Apoptosis/viability by flow cytometry, B cells from SMZL patients; type: cell-based, human; conditions: 0.5 mM and 1.0 mM, 24 h, seven SMZL patients
Text: (§2) Forty-six patients with B-CLL, seven patients with SMZL, two patients with lymphoproliferative disorder without a specific diagnosis, and four healthy donors were studied. All patients were diagnosed according to standard clinical and laboratory criteria. Written informed consent was obtained from all patients. Mononuclear cells from peripheral blood samples were isolated by centrifugation on a Ficoll/Hypaque (Seromed, Berlin, Germany) gradient and cryopreserved in liquid nitrogen in the presence of 10% dimethyl sulfoxide (DMSO). Lymphocytes were cultured immediately after thawing at a concentration of 2 to 5×10^6 cells/ml in RPMI 1640 culture medium (Biological Industries, Beit Haemek, Israel) supplemented with 10% heat-inactivated fetal calf serum (Gibco-BRL, Paisley, GB), 1% glutamine, and 1% penicillin-streptomycin at 37° C. in a humidified atmosphere containing 5% carbon dioxide. Apoptosis was measured by annexin V binding. Exposure of phosphatidylserine was quantified by surface annexin V staining as previously described (cf. B. Bellosillo et al., Blood 1998, vol. 92, pp. 1406-1414). […] Data were analyzed using Cell Quest software. […] Viability (V) was measured by analysis of phosphatidylserine exposure and PI uptake, and it is expressed as the percentage of non apoptotic cells. […]

[3] = test system: Jurkat (T cell line); assay: Effects of acadesine in cell lines: Jurkat; type: cell-based
Text: as §1

[4] = test system: Hela (cervix cancer line); assay: Effects of acadesine in cell lines: Hela; type: cell-based
Text: as §1

[5] = healthy individuals, given intravenously; cited from earlier work
[6] = test system: MCF-7 (breast cancer line); assay: Effects of acadesine in cell lines: MCF-7; type: cell-based
Text: as §1

[7] = test system: B cells from patients with lymphoproliferative disorder without a specific diagnosis; assay: Apoptosis/viability by flow cytometry, B cells, lymphoproliferative disorder without a specific diagnosis; type: cell-based, human; conditions: 0.5 mM and 1.0 mM, 24 h, two patients
Text: as §2

[8] = test system: B cells from healthy donors; assay: Apoptosis/viability by flow cytometry, B cells from healthy donors; type: cell-based, human; conditions: 0.5 mM, 24 h, 4 healthy donors
Text: Forty-six patients with B-CLL, seven patients with SMZL, two patients with lymphoproliferative disorder without a specific diagnosis, and four healthy donors were studied. All patients were diagnosed according to standard clinical and laboratory criteria. Written informed consent was obtained from all patients. Mononuclear cells from peripheral blood samples were isolated by centrifugation on a Ficoll/Hypaque (Seromed, Berlin, Germany) gradient and cryopreserved in liquid nitrogen in the presence of 10% dimethyl sulfoxide (DMSO). Lymphocytes were cultured immediately after thawing at a concentration of 2 to 5×10^6 cells/ml in RPMI 1640 culture medium (Biological Industries, Beit Haemek, Israel) supplemented with 10% heat-inactivated fetal calf serum (Gibco-BRL, Paisley, GB), 1% glutamine, and 1% penicillin-streptomycin at 37° C. in a humidified atmosphere containing 5% carbon dioxide. Apoptosis was measured by annexin V binding. Exposure of phosphatidylserine was quantified by surface annexin V staining as previously described (cf. B. Bellosillo et al., Blood 1998, vol. 92, pp. 1406-1414). To analyze apoptosis in T cells from the samples, 500,000 cells were incubated for 24 h with the indicated factors. […] Data were analyzed using Cell Quest software. […] Viability is expressed as the mean value ± standard deviation.

[9] = test system: B-CLL cells; assay: cells; type: cell-based, human
Text: Forty-six patients with B-CLL, seven patients with SMZL, two patients with lymphoproliferative disorder without a specific diagnosis, and four healthy donors were studied. All patients were diagnosed according to standard clinical and laboratory criteria. Written informed consent was obtained from all patients. Mononuclear cells from peripheral blood samples were isolated by centrifugation on a Ficoll/Hypaque (Seromed, Berlin, Germany) gradient and cryopreserved in liquid nitrogen in the presence of 10% dimethyl sulfoxide (DMSO).
Lymphocytes were cultured immediately after thawing at a concentration of 2 to 5×10^6 cells/ml in RPMI 1640 culture medium (Biological Industries, Beit Haemek, Israel) supplemented with 10% heat-inactivated fetal calf serum (Gibco-BRL, Paisley, GB), 1% glutamine, and 1% penicillin-streptomycin at 37° C. in a humidified atmosphere containing 5% carbon dioxide.
Apoptosis was measured by annexin V binding. Exposure of phosphatidylserine was quantified by surface annexin V staining as previously described (cf. B. Bellosillo et al., Blood 1998, vol. 92, pp. 1406-1414). To analyze apoptosis in T cells from the samples, 500,000 cells were incubated for 24 h with the indicated factors. Cells were then washed in phosphate-buffered saline (PBS) solution, and incubated in 50 μl of annexin binding buffer with APC-conjugated anti-CD3 and PE-conjugated anti-CD19 for 10 minutes in the dark. Cells were then diluted with annexin binding buffer to a volume of 250 μl and incubated with 0.5 μl of annexin V-FITC for 15 minutes in the dark. 250 μl of annexin binding buffer and 5 μl of PI were added just before flow cytometric analysis. Data were analyzed using Cell Quest software.
The effect of several doses of acadesine, ranging from 50 μM to 1 mM, on the viability of B-CLL cells, was studied. […] Cells from 5 patients were incubated for 24 h with various doses of acadesine as indicated.
Cells from 46 patients were incubated for 24 h with (+) or without (−) 0.5 mM acadesine. Viability (V) was measured by analysis of phosphatidylserine exposure and PI uptake, and it is expressed as the percentage of non apoptotic cells. All the patients were sensitive to acadesine and the viability decreased from 67±11% to 26±14% (n=46).

[10] = test system: 293; assay: Effects of acadesine in cell lines: 293; type: cell-based
Text: as §1

[11] = test system: HUH7 (liver cancer line); assay: Effects of acadesine in cell lines: HUH7; type: cell-based
Text: as §1

[12] = test system: CD3+/CD19- T cells from B-CLL patients; assay: Apoptosis/viability by flow cytometry, T cells from B-CLL samples; type: cell-based, human; conditions: 24 h
Text: Forty-six patients with B-CLL, seven patients with SMZL, two patients with lymphoproliferative disorder without a specific diagnosis, and four healthy donors were studied. All patients were diagnosed according to standard clinical and laboratory criteria. Written informed consent was obtained from all patients. Mononuclear cells from peripheral blood samples were isolated by centrifugation on a Ficoll/Hypaque (Seromed, Berlin, Germany) gradient and cryopreserved in liquid nitrogen in the presence of 10% dimethyl sulfoxide (DMSO). […] Apoptosis was measured by annexin V binding. Exposure of phosphatidylserine was quantified by surface annexin V staining as previously described (cf. B. Bellosillo et al., Blood 1998, vol. 92, pp. 1406-1414). […] Data were analyzed using Cell Quest software. To analyze whether the induction of apoptosis in B-CLL patients was selective to B cells, we counted the apoptotic T cells (CD3 positive cells) in four B-CLL blood samples treated for 24 h with several doses of acadesine. […] Viability (V) was measured as non apoptotic CD3+/CD19− T cells (empty symbols) or CD3−/CD19+B cells (full symbols), and it is expressed as the percentage of the viability of non treated cells. […] Viability is expressed as the mean value ± standard deviation.

NC(=O)c1ncn([C@@H]2O[C@H](CO)[C@@H](O)[C@H]2O)c1N [acadesine, 5-amino-1-β-D-ribofuranosyl-1H-imidazole-4-carboxamide]
Sensitivity to acadesine relative to B-CLL cells [1]: less sensitive to acadesine than B-CLL cells
Viability of B cells [2]: markedly reduced
Sensitivity to acadesine relative to B-CLL cells [3]: less sensitive to acadesine than B-CLL cells
Sensitivity to acadesine relative to B-CLL cells [4]: less sensitive to acadesine than B-CLL cells
Concentrations in plasma [5]: 200 µM
Tolerability [5]: well tolerated
Sensitivity to acadesine relative to B-CLL cells [6]: less sensitive to acadesine than B-CLL cells
Viability of B cells [7]: markedly reduced
Viability of B cells [8]: markedly reduced
Viability of B cells ([9]; 0.5 mM, 24 h, 18 B-CLL patients): markedly reduced
Induction of apoptosis ([9]; 24 h incubation, doses 50 μM to 1 mM, cells from 5 patients): induced apoptosis in a dose-dependent manner
viability at 500 µM ([9]; Homo sapiens, B-CLL, 24 h, read-out: Viability (percentage of non apoptotic cells)): 26 ± 14%
EC50 ([9]; Homo sapiens, B-CLL, 24 h incubation, 50 μM to 1 mM, cells from 5 patients (n=5), read-out: EC50 (viability of B-CLL cells)): 380 ± 60 µM
Sensitivity to acadesine relative to B-CLL cells [10]: less sensitive to acadesine than B-CLL cells
Sensitivity to acadesine relative to B-CLL cells [11]: less sensitive to acadesine than B-CLL cells
Acadesine-induced apoptosis in T cells ([12]; doses up to 1 mM, four B-CLL blood samples): resistant to acadesine-induced apoptosis
Viability of T cells ([12]; higher concentrations 2-4 mM): only slightly affected the viability
